Entries after “also recorded” stand apart in the source; their conditions may differ.
Tests used:
[1] = test system: amyloid precursor protein (APP770) residues 649–722; experiment: Peptide microarray epitope pre-screening (overlapping 15-mers); format: binding, human; conditions: 0.5–1 μg/mL antibody
Protocol: Information regarding binding epitopes and /or immunogens for most of the tested Aβ-Abs has been published and is summarized in Table 1. However, the binding epitope information was derived from varying methodologies. To provide an initial side-by-side comparison we pre-screened all of the listed Aβ-Abs in array format using copies of peptide libraries and standard antibody concentrations of 0.5–1 μg/mL (Figure 1a). The library comprised the amyloid precursor protein (APP770) residues 649–722, corresponding to the canonical Aβ1–42 amino acid sequence with additional 23 amino terminal and 9 carboxy terminal residues. […] For optimal signal to noise ratios and ideal selectivity profiles on the microarrays, the Aβ-Ab concentrations were adjusted for 3D6, 82E1, 11H3, 80C2 and 7H3D6 (Figure 1 – figure- supplement 1) and (Appendix 1–7). […] Specifically, Donanemabbs, 2–48 and Aβ-pE3 were raised against AβpE3-x (Table 1) and were expected to show preference for Aβ peptides starting with a pE(3).
Figure 1. Microarray workflow and Aβ-Ab epitope pre-screening. (a) Schematic of the microarray workflow. The library comprised the amyloid precursor protein (APP) residues 649–722 (APP770 numbering), corresponding to Aβ residues −23 to 51, as a library of 15-mer peptides overlapping by 14AAs, copied in dozens, and probed for Aβ-Abs binding followed by analysis in MARTin. (b) The epitope screening binding data are summarized as a heatmap. Blue and red shades indicate the relative binding strength of the related arrayed peptides to the left and cognate Aβ-Ab on top. The blue – red scale is visualizing the normalized binding intensity for each antibody individually. The applied antibody concentrations ranged between 0.5–1 μg/mL.
The μSPOT assay was performed as previously described. […] Peptide arrays were synthesized using MultiPep RSi robot (CEM GmbH, Kamp-Lintford, Germany) on cellulose discs containing Fmoc-β-Ala linkers. Natural amino acid building blocks were purchased from IRIS (IRIS Biotech GmbH, Marktredwitz, Germany). Special building blocks employed in this study such as isomers, stereoisomers, phosphorylation and pyroglutamination […] modifications are listed here: Fmoc-L-Ser(PO(OBzl)OH)-OH (Iris – FAA1423), L-Pyroglutamic acid pentachlorophenyl ester (Novabiochem - 8.54203), Fmoc-L-Asp-OtBu (Iris – FAA1356), Fmoc-D-Asp-OtBu (Carbosolutions – CC05095) and Fmoc-D-Asp(tBu)-OH (Iris – FAA1309). Synthesis was carried out by deprotecting the Fmoc-group using 20% piperidine in dimethylformamide (DMF). Peptide chains were elongated using a coupling solution consisting of amino acids (0.5M) with oxyma (1M) and DIC (1M) in DMF (1:1:1). Coupling steps were carried out 3 times (30min), followed by capping (4% acetic anhydride in DMF). Discs were transferred into 96 deep-well plates for the work-up.

Aβ = conditions: ref [47],[64],[57],[14]; cited from earlier work
AβpE3-x = experiment: PTM-Aβ microarray, pE3; format: binding, human; conditions: Donanemabbs 0,0012μg/mL, 2–48, Aβ-pE3, IC16 […], vs Aβ3-x with non-cyclized Glu
Excerpt: Specific PTMs might be associated with different stages of AD progression and severity, offering potential biomarkers for diagnosis and prognosis. Targeting PTMs represents a potential therapeutic strategy to prevent Aβ aggregation and neurotoxicity, thereby slowing disease progression. […] Therefore, a selected group of PTM-carrying Aβ peptides (PTM-Aβ) were incorporated into the Aβ chip to explore the potential binding preference of selected Aβ-Abs, under optimized concentrations (Figure 3). The antibodies were tested with both PTM-Aβ and the corresponding unmodified variants to provide a head-to-head comparison. This screening was performed in the presence of Aβ phosphorylated at positions Ser(8) or Ser(26), N-terminal pE at position 3, racemization/isomerization of Asp at position 1, and unmodified N-terminal variants. The dataset is divided into sections (Figure 3 a–f) for enhanced visualization, where each antibody was screened simultaneously against all peptides to locate their epitope preferences. […] A set of antibodies without reported PTM preference was applied here as controls (refer to Table 1), namely 11H3, 101–1-1, IC16, 82E1 and 3D6.
Figure 3. […] Blue and red shades indicate the binding strength over the related arrayed […] modified peptide shown on top and cognate anti-Aβ antibody to the left. […]

CAA fibrils = conditions: ref [38],[47]; cited from earlier work
Excerpt: Despite extensive structural, genetic, and pre-clinical investigations, clinical trials of Aβ antibodies have yielded ambiguous outcomes. Aβ antibody binding to cerebral amyloid angiopathy (CAA) has been hypothesized to correlate with the frequency of amyloid-related imaging abnormalities with edema (ARIA-E) observed in patients treated with Aβ-based immunotherapies.

Donanemab: Eli Lilly's Donanemab, approved in the US as Kisunla [reference compound]
Array: epitope identified in this study on microarrays ([1]; Aβ residue numbers, 15-mer peptides overlapping by 14AAs on cellulose conjugates, chemiluminescence): 3–10
binding in epitope pre-screening ([1]; unmodified Aβ-related 15-mers, generic pre-screening conditions): produced detectable signals in this pre-screening with unmodified Aβ-related peptides
reported selectivity for modified Aβ (Aβ): selective for AβpE3; also recorded: known to recognize Aβ starting with cyclized pE3
selectivity for / binding to AβpE3-x (AβpE3-x): cyclized AβpE3-x as the dominant binding determinant
binding to CAA fibrils (CAA fibrils): binds to CAA fibrils in proportion to the amount of pyroglutamate-modified Aβ they present

— article doi:10.1101/2025.02.26.640323, “Aggregation-Dependent Epitope Sequence and Modification Fingerprints of Anti-Aβ Antibodies” (bioRxiv, 2025)
